These results are taken from PMC4203769, “The “Genomic Storm” Induced by Bacterial Endotoxin Is Calmed by a Nuclear Transport Modifier That Attenuates Localized and Systemic Inflammation” (PLoS ONE, 2014).

Data set [1] in a line: Solubility of peptides in water. It counts as physicochemical. The source says:
A fragment-linked peptide strategy to analyze signal-dependent nuclear transport is based on fusing a motif from the nuclear localization sequence (NLS) region of the NF-κB1/p50 subunit with the signal sequence hydrophobic region (SSHR) of human fibroblast growth factor 4 [7], [19]. NLS- and SSHR-containing NTMs (SN50, cSN50 and cSN50.1; see Table 1 for their composition and solubility) were designed to function at the nuclear transport level by binding to importins α during stimulus-initiated signaling and thereby modulate nuclear import of NLS-bearing SRTFs. The SSHR motif allows peptides to cross the plasma membrane of cells in culture or in experimental animals through an ATP- and endosome-independent mechanism. […] The functional utility of NTMs has been reported in numerous preclinical models of inflammation caused by microbial and autoimmune insults, [21]–[26].

Data set [2] deals with primary macrophages challenged with LPS. Briefly: Cell viability of LPS-challenged primary macrophages. It counts as cell-based, mouse (C57BL/6). Particulars: LPS-challenged BMDMs, 30 µM peptide; data not shown; listed as NTM.
Data set [3] has as its system mouse blood cells and organs. Particulars: after i.p. injection; receptor- and endocytosis-independent mechanism; cited from earlier work. As for the experimental part: NTM is rapidly delivered (within 30–60 min after i.p. injection) through a receptor-and endocytosis-independent mechanism to mouse blood cells and organs where it reaches sufficient intracellular concentration to engender localized (lung) and systemic (endotoxic shock) anti-inflammatory effects. Thus, the microvascular compartment of multiple organs that are vulnerable to LPS toxicity (e.g. lungs, liver, and kidneys) can be protected, [22]. Unlike anti-inflammatory glucocorticosteroids which produced discordant results in sepsis clinical trials, [33] and have potential ...

Several values for one entry are separate records, joined by “and”; a condition that tells them apart may be missing. Equal entries are not always repeated. Entries after “also recorded” stand apart in the source; their conditions may differ. Positions of bridges follow the written chain, without caps; N, C: chain ends. Residues, ends and D or L forms follow the SMILES beside them.

As to `CSCC[C@@H]1NC(=O)[C@H](CC(C)C)NC(=O)[C@H](CCCCN)NC(=O)[C@H](CCC(N)=O)NC(=O)[C@H](CCCNC(=N)N)NC(=O)[C@H](CCCCN)NC(=O)[C@H](CCCNC(=N)N)NC(=O)[C@H](CCC(N)=O)NC(=O)[C@H](C(C)C)NC(=O)[C@@H](NC(=O)[C@@H]2CCCN2C(=O)[C@H](C)NC(=O)[C@H](CC(C)C)NC(=O)[C@H](CC(C)C)NC(=O)[C@H](C)NC(=O)[C@H](CC(C)C)NC(=O)[C@H](CC(C)C)NC(=O)[C@@H](NC(=O)[C@H](C)NC(=O)[C@@H]2CCCN2C(=O)[C@H](CC(C)C)NC(=O)[C@H](CC(C)C)NC(=O)[C@H](C)NC(=O)[C@@H](NC(=O)[C@H](C)NC(=O)[C@H](C)N)C(C)C)C(C)C)CSSC[C@@H](C(=O)O)NC(=O)[C@@H]2CCCN2C1=O` [cSN50.1] (H-AAVALLPAVLLALLAPCVQRKRQKLMPC-OH; disulfide 17-28), the “Solubility in Water” value in data set [1] is 100 mg/mL and 33.5 mM. Moreover, the “effect on cell viability / cytotoxicity” value in data set [2] is “without altering expression of housekeeping genes or being cytotoxic; also recorded: not associated with changes in cell viability”. Further, in data set [3], the “time to delivery to mouse blood cells and organs” value was 30 to 60 min.
Turning to `CSCC[C@@H]1NC(=O)[C@H](CC(C)C)NC(=O)[C@H](CCCCN)NC(=O)[C@H](CCC(N)=O)NC(=O)[C@H](CCCNC(=N)N)NC(=O)[C@H](CCCCN)NC(=O)[C@H](CCCNC(=N)N)NC(=O)[C@H](CCC(N)=O)NC(=O)[C@H](C(C)C)NC(=O)[C@H](Cc2ccc(O)cc2)NC(=O)[C@@H](NC(=O)[C@@H]2CCCN2C(=O)[C@H](C)NC(=O)[C@H](CC(C)C)NC(=O)[C@H](CC(C)C)NC(=O)[C@H](C)NC(=O)[C@H](CC(C)C)NC(=O)[C@H](CC(C)C)NC(=O)[C@@H](NC(=O)[C@H](C)NC(=O)[C@@H]2CCCN2C(=O)[C@H](CC(C)C)NC(=O)[C@H](CC(C)C)NC(=O)[C@H](C)NC(=O)[C@@H](NC(=O)[C@H](C)NC(=O)[C@H](C)N)C(C)C)C(C)C)CSSC[C@@H](C(=O)O)NC(=O)[C@@H]2CCCN2C1=O` [cSN50, reference compound] (H-AAVALLPAVLLALLAPCYVQRKRQKLMPC-OH; disulfide 17-29), the “Solubility in Water” value in data set [1] is 38 mg/mL and 12.1 mM.
